Measurements from US8871772B2, “Therapeutic methods and compounds” (Ampio Pharmaceuticals, Inc., priority 2008, dated 2014).

Assays:
Format in all cases: cell-based
[1] = tested on: AU565 breast cancer cell line; experiment: Proliferation of AU565 cancer cells, Promega cell titer assay; conditions: 96 hours, negative number = increase
Procedure: Assays were performed to determine the effect of Cpd. 5 (synthesis described in Example 1) on proliferation of two cancer cell lines. These two cell lines were STTG grade 4 astrocytoma cell line and AU565 breast cancer cell line. Both cell lines were obtained from American Type Culture Collection, Rockville, Md. (ATCC).
To perform the assays, a 50 mM stock solution of Cpd. 5 was prepared in DMSO and frozen at −80° C. Aliquots of the stock solution were removed and 100 μM dilutions were made in Iscove's modified Dulbecco's medium (IMDM; obtained from ATCC) supplemented with 10% fetal bovine serum (FBS) and penicillin/streptomycin solution. Controls containing equivalent amounts of DMSO to the 100 μM solution were mixed for comparative purposes. 100 μl of the resulting solutions were then added to 96 well culture plates in triplicate and placed in a 37° C. incubator with 5% CO2 to warm.
(§1) At this point, cells were removed from passage flasks using trypsin and counted using trypan blue to establish cell counts/ml and viability. For all experiments, viability of cells was greater than 95%. Solutions of 4,000 cells/100 μl were prepared in the medium from above and 100 μl of the solutions were added to each well of the plates. The plates were placed back in the incubator and incubated with the compounds for 96 hours.
Following incubation, cell proliferation was assayed by adding 20 μl Promega cell titer aqueous one reagent to each well. […] The plates were incubated at 37° C. for an additional 4-18 hours to allow the colorimetric assay to develop, and the OD of each well was determined in a microplate reader using a 530 nm filter. The OD of wells containing cell titer reagent in culture medium with no cells was subtracted from the OD of all experimental readings.
The % decrease of the total cell titer signal was determined using the following formula. […] The p values were calculated versus diluent controls.

WM-266-4 cells = experiment: Proliferation of WM-266-4 cells (separate experiment); conditions: concentration not given
Source text: As shown there, Cpd. […] It should also be noted that, in a separate experiment, Cpd.

[2] = tested on: U-118 metastatic astrocytoma cell line; experiment: Proliferation of U-118 cancer cells, Promega cell titer assay
Procedure: Assays were performed to determine the effect of Cpd. 5 on proliferation of an additional cancer cell line. This cell line was the U-118 metastatic astrocytoma cell line. It was obtained from ATCC.
To perform the assays, a 50 mM stock solution of Cpd. 5 was prepared in DMSO and frozen at −80° C. […] Controls containing equivalent amounts of DMSO to the 300 μM solution were mixed for comparative purposes. 100 μl of the resulting solutions were then added to 96 well culture plates in triplicate and placed in a 37° C. incubator with 5% CO2 to warm.
as §1, with “Cells” for “At this point, cells”, “trypsin and ethylenediaminetetracetic acid (EDTA)” for “trypsin”, “above,” for “above”
Following incubation, cell proliferation was assayed by adding 20 μl Promega cell titer aqueous one reagent to each well. Promega cell titer reagent is a solution containing a tetrazolium dye that is reduced by living cells to a formazan dye, and this reduction is proportional to the number of living cells present in the well. The plates were incubated at 37° C. for an additional 4 hours to allow the colorimetric assay to develop, and the OD of each well was determined in a microplate reader using a 530 nm filter. The OD of wells containing cell titer reagent in culture medium with no cells was subtracted from the OD of all experimental readings.
The % decrease of the total cell titer signal was determined using the following formula. ((Diluent OD−Experimental OD)/Diluent OD))×100. Data are presented in Table 5 as mean % decrease of cell titer signal of three separate experiments, plus or minus standard deviation. In the mean % decrease column, a positive number means a decrease in cell titer signal, while a negative number means an increase in cell titer signal. The p values were calculated versus diluent controls.
The above experiment was repeated using the U-118 cells at 3000 cells/well.

**Q.** For `COC(=O)C(c1ccc(-c2ccccc2)cc1)C1NC(=O)CNC1=O` (stereo not drawn) [Cpd. 5, biphenyl-4-yl-(3,6-dioxo-piperazin-2-yl)-acetic acid methyl ester], which “MEAN % DECREASE of cell titer signal” value ([1]; AU565, 50 μM) is on record?
**A.** 13.44%

**Q.** What about the “inhibition of the proliferation of WM-266-4 cells” value (WM-266-4 cells) of the same molecule?
**A.** did not inhibit

**Q.** What about the “MEAN % DECREASE of cell titer signal” value ([2]; U-118, 3000 cells/well, 25 μM final) of the same molecule?
**A.** −25.28%

**Q.** And the “MEAN % DECREASE of cell titer signal” value ([2]; U-118, 3000 cells/well, 37.5 μM final)?
**A.** −25.28%

**Q.** What about the “MEAN % DECREASE of cell titer signal” value ([2]; U-118, 3000 cells/well, 50 μM final) of the same molecule?
**A.** −15.63%

**Q.** What about the “MEAN % DECREASE of cell titer signal” value ([2]; U-118, 3000 cells/well, 75 μM final) of the same molecule?
**A.** −3.05%

**Q.** And the “MEAN % DECREASE of cell titer signal” value ([2]; U-118, 3000 cells/well, 100 μM final)?
**A.** 20.51%

**Q.** What about the “MEAN % DECREASE of cell titer signal” value ([2]; U-118, 3000 cells/well, 150 μM final) of the same molecule?
**A.** 59.70%

**Q.** And the “MEAN % DECREASE of cell titer signal” value ([2]; U-118, 4,000 cells/well, 25 μM final, 96 hours)?
**A.** −50.62%

**Q.** And the “MEAN % DECREASE of cell titer signal” value ([2]; U-118, 4,000 cells/well, 37.5 μM final, 96 hours)?
**A.** −46.50%

**Q.** And the “MEAN % DECREASE of cell titer signal” value ([2]; U-118, 4,000 cells/well, 50 μM final, 96 hours)?
**A.** −7.82%

**Q.** What about the “MEAN % DECREASE of cell titer signal” value ([2]; U-118, 4,000 cells/well, 75 μM final, 96 hours) of the same molecule?
**A.** 4.11%

**Q.** What about the “MEAN % DECREASE of cell titer signal” value ([2]; U-118, 4,000 cells/well, 100 μM final, 96 hours) of the same molecule?
**A.** 25.93%

**Q.** What about the “MEAN % DECREASE of cell titer signal” value ([2]; U-118, 4,000 cells/well, 150 μM final, 96 hours) of the same molecule?
**A.** 65.84%

**Q.** What does the source list for `O=c1cc(N2CCOCC2)oc2c(-c3ccccc3)cccc12` [LY294002, reference compound]?
**A.** MEAN % DECREASE of cell titer signal ([1]; AU565, 20 μM): 61.95%; inhibition of the proliferation of WM-266-4 cells (WM-266-4 cells): 105%; MEAN % DECREASE of cell titer signal ([2]; U-118, 3000 cells/well, 40 μM final): 86.04%; MEAN % DECREASE of cell titer signal ([2]; U-118, 4,000 cells/well, 20 μM final, 96 hours): 19.75%
